Test results from US20100119599A1 (ARCHER PHARMACEUTICALS, INC., priority 2006, published 2010).

Legend:
[1] = tested on: Aβ1-40; assay: Measurement of Aβ1-40 in culture medium of 7W WT APP751 CHO cells by ELISA; type: cell-based, Chinese hamster; conditions: for Aβ1-40 (% of control): CHO cells that overexpress APP751, zero = below the detection limit of the assay; for activity at 5 µM: Cricetulus griseus, Table 1, 5 μM test compound, CHO cells stably transfected with human APP751, culture medium, ELISA, control DMSO, 0 = no detectable amount
Protocol: (§1) Chinese hamster ovary (CHO) cells, stably transfected with human APP751 (7W WT APP751 CHO cells) were used. See, e.g., Koo and Squazzo, J. Biol. Chem., 269(26): 17386-17389, 1994. The cells were maintained in DMEM medium supplemented with 10% fetal bovine serum and 1× mixture of penicillin/streptomycin/fungizone/glutamine mixture (Cambrex, Md.) geneticin as selecting agent in 75 cm^2 cell culture flasks. The 7W WT APP751 CHO cells were plated in 96-well cell culture plates in quadruplicate, containing 200 microliters of culture medium, for 18 hours at 37° C. and 5% CO2. All test compounds were placed in dimethyl sulfoxide (DMSO) before being added to the cultured confluent 7W WT APP751 CHO cells to a concentration of the test compound of 5 μM. The culture medium was collected and diluted before being assayed by ELISAs for Aβ1-40 at 10-fold dilution and Aβ1-42 at 2-fold dilution, respectively. Concentrations of Aβ1-40 and Aβ1-42, expressed in pg/ml, were determined using commercially available ELISAs (Biosource, Calif.) in a colorimetric assay using labeled antibodies detected spectrophotometrically. For compounds with an identification beginning “RI”, the compounds were tested at a concentration of 10 μM for 24 hours. Control cells were treated with DMSO containing no compound. The percentage reduction in levels of Aβ1-40 and Aβ1-42 as compared to control cells not exposed to the test compounds are reported for the compounds in Tables 1, 2, and 3, supra. An entry of “0” indicates no detectable amount of Aβ1-40 or Aβ1-42 according to the assay conditions. The data in Tables 1, 2, and 3 may be rounded to the nearest 0.1%.

[2] = tested on: Aβ1-42; assay: Measurement of Aβ1-42 in culture medium of 7W WT APP751 CHO cells by ELISA; type: cell-based, Chinese hamster; conditions: for Aβ1-42 (% of control): CHO cells that overexpress APP751, zero = below the detection limit of the assay; for activity at 5 µM: Cricetulus griseus, Table 1, 5 μM test compound, CHO cells stably transfected with human APP751, culture medium, ELISA, control DMSO, 0 = no detectable amount, read-out: Aβ1-42 (% of control)
Protocol: as §1
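Further: 5 µM test compound but RI-coded compounds at 10 µM for 24 hours.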

| Structure (SMILES) | Aβ1-40 (% of control) [1] | Aβ1-42 (% of control) [2] | activity at 5 µM [1] | activity at 5 µM [2] |
| --- | --- | --- | --- | --- |
| CC1=C(C(=O)Nc2ccc(Cl)cc2)C(c2ccsc2)C(C#N)=C(SCC(=O)Nc2ccc(C)c(Cl)c2)N1 (stereo not shown) [RI_37] | 64.4 % of control | 75.8 % of control | – | – |
| CC1=C(C(=O)OCCc2ccccc2)C(c2ccc(Cl)cc2)C2=C(CC(C)(C)CC2=O)N1 (stereo not shown) [ST015106, 2-phenylethyl 4-(4-chlorophenyl)-2,7,7-trimethyl-5-oxo-1,4,6,7,8-pentahydroquinoline-3-carboxylate] | – | – | 13.2% | 0% |
| CCc1cccc(NC(=O)CSC2=C(C#N)C(c3sccc3C)C(C(=O)Nc3ccccc3)=C(C)N2)c1 (stereo not shown) [RI_79] | 55.46 % of control | 51.6 % of control | – | – |
| CC1=C(C(=O)OC2CCCCC2)C(c2ccccc2OCc2ccccc2)C2=C(CCCC2=O)N1 (stereo not shown) [ST013271, cyclohexyl 2-methyl-5-oxo-4-[2-(phenylmethoxy)phenyl]-1,4,6,7,8-pentahydroquinoline-3-carboxylate] | – | – | 6.92% | 39.9% |
| CC1=C(C(=O)Nc2ccc(Cl)cc2)C(c2ccccc2)C(C#N)=C(SCC(=O)Nc2ccc(C)cc2)N1 (stereo not shown) [RI_41] | 36.4 % of control | 30.7 % of control | – | – |
| CC1=C(C(=O)OCCOC(C)C)C(c2ccc([N+](=O)[O-])cc2)C2=C(CC(C)(C)CC2=O)N1 (stereo not shown) [ST052272, 2-(methylethoxy)ethyl 2,7,7-trimethyl-4-(4-nitrophenyl)-5-oxo-1,4,6,7,8-pentahydroquinoline-3-carboxylate] | – | – | 65.8% | 29.2% |
| N#CC1=C(N)NC(SCC(N)=O)=C(C#N)C1c1cccs1 (stereo not shown) [RI_4] | 92.2 % of control | 64.7 % of control | – | – |
| CCCCCOC(=O)C1=C(C)NC2=C(C(=O)CC(C)(C)C2)C1c1ccc(OC)cc1 (stereo not shown) [ST216606, pentyl 4-(4-methoxyphenyl)-2,7,7-trimethyl-5-oxo-1,4,6,7,8-pentahydroquinoline-3-carboxylate] | – | – | 1.4% | 9.56% |
| CCN(CC)c1ccc(C2C(C(=O)OCc3ccccc3)=C(C)NC3=C2C(=O)CC(C)(C)C3)cc1 (stereo not shown) [ST013049, phenylmethyl 4-[4-(diethylamino)phenyl]-2,7,7-trimethyl-5-oxo-1,4,6,7,8-pentahydroquinoline-3-carboxylate] | – | – | 27.8% | 94.1% |
| CCc1ccc(C2C(C(=O)OC)=CNC=C2C(=O)OC)cc1 [ST052274, methyl 4-(4-ethylphenyl)-5-(methoxycarbonyl)-1,4-dihydropyridine-3-carboxylate] | 4.952 % of control | 0 % of control | – | – |
| COCCOC(=O)C1=C(C)NC2=C(C(=O)CC(c3ccc(Cl)cc3)C2)C1c1ccc(Br)cc1 (stereo not shown) [ST016960, 2-methoxyethyl 4-(4-bromophenyl)-7-(4-chlorophenyl)-2-methyl-5-oxo-1,4,6,7,8-pentahydroquinoline-3-carboxylate] | – | – | 51.5% | 76.4% |
| CCC(C)OC(=O)C1=C(C)NC2=C(C(=O)CC(c3ccc(Cl)cc3)C2)C1c1ccc(Cl)c(Cl)c1 (stereo not shown) [ST017095, methylpropyl 4-(3,4-dichlorophenyl)-7-(4-chlorophenyl)-2-methyl-5-oxo-1,4,6,7,8-pentahydroquinoline-3-carboxylate] | – | – | 61.3% | 37.1% |
| CCN(CC)c1ccc(C2C(C(=O)OC)=C(C)NC3=C2C(=O)CC(c2ccccc2)C3)cc1 (stereo not shown) [ST013129, methyl 4-[4-(diethylamino)phenyl]-2-methyl-5-oxo-7-phenyl-1,4,6,7,8-pentahydroquinoline-3-carboxylate] | – | – | 64.3% | 90.6% |
| COc1cc(/C=c2\sc3n(c2=O)C(N)=C(C#N)C(c2cc(OC)c(OC)c(OC)c2)C=3C#N)cc(OC)c1OC (stereo not shown) [ST025031, 5-amino-3-oxo-7-(3,4,5-trimethoxyphenyl)-2-[(3,4,5-trimethoxyphenyl)methylene]-4,7-dihydro-1,3-thiazolidino[3,2-a]pyridine-6,8-dicarbonitrile] | 55.17 % of control | 77.59 % of control | – | – |
| Cc1cccc(C(C)C)c1NC(=O)CSc1nc(C)c(C(=O)Nc2ccccc2)c(-c2cccs2)c1C#N [RI_36] | 35.9 % of control | 72.9 % of control | – | – |
| CC1=C(C(=O)OC2CCCCC2)C(c2ccc(Cl)cc2)C2=C(CC(c3ccccc3)CC2=O)N1 (stereo not shown) [ST013352, cyclohexyl 4-(4-chlorophenyl)-2-methyl-5-oxo-7-phenyl-1,4,6,7,8-pentahydroquinoline-3-carboxylate] | – | – | 22.4% | 84% |
| CCN(CC)c1ccc(C2C(C(=O)OCCOC)=C(C)NC3=C2C(=O)CCC3)cc1 (stereo not shown) [ST013256, 2-methoxyethyl 4-[4-(diethylamino)phenyl]-2-methyl-5-oxo-1,4,6,7,8-pentahydroquinoline-3-carboxylate] | – | – | 60.2% | 92.8% |
| CCOc1cc(C2C(C(=O)OCc3ccc(OC)cc3)=C(C)NC3=C2C(=O)CC(C)(C)C3)ccc1O (stereo not shown) [ST016964, (4-methoxyphenyl)methyl 4-(3-ethoxy-4-hydroxyphenyl)-2,7,7-trimethyl-5-oxo-1,4,6,7,8-pentahydroquinoline-3-carboxylate] | – | – | 36.4% | 40% |
| COC(=O)C1=C(C)NC2=C(C(=O)CC(c3cccs3)C2)C1c1ccc(C)s1 (stereo not shown) [ST052308, methyl 2-methyl-4-(5-methyl(2-thienyl))-5-oxo-7-(2-thienyl)-1,4,6,7,8-pentahydroquinoline-3-carboxylate] | – | – | 48.4% | 74.2% |
| CCOc1cc(C2C(C(=O)OCCSCC)=C(C)NC3=C2C(=O)CC(c2ccc(Cl)cc2)C3)ccc1O (stereo not shown) [ST017243, 2-ethylthioethyl 7-(4-chlorophenyl)-4-(3-ethoxy-4-hydroxyphenyl)-2-methyl-5-ox o-1,4,6,7,8-pentahydroquinoline-3-carboxylate] | – | – | 69.6% | 15.6% |
| CC1=C(C(=O)Nc2ccc(Cl)cc2)C(c2ccccc2)C(C#N)=C(SCC(=O)Nc2ccccc2)N1 (stereo not shown) [RI_42] | 27.2 % of control | 36.2 % of control | – | – |
| N#CC1=C(N)n2c(s/c(=C/c3cccc(Br)c3)c2=O)=C(C#N)C1c1cccc(Br)c1 (stereo not shown) [ST024841, 5-amino-7-(3-bromophenyl)-2-[(3-bromophenyl)methylene]-3-oxo-4,7-dihydro-1,3-thiazolidino[3,2-a]pyridine-6,8-dicarbonitrile] | 61.78 % of control | 95.58 % of control | – | – |
| Cc1ccccc1N1C2=C(C(=O)CC(C)(C)C2)C(c2ccccc2)C2=C1c1ccccc1C2=O (stereo not shown) [ST024318, 3,3-dimethyl-5-(2-methylphenyl)-11-phenyl-2,3,4,5,11-pentahydroindeno[3,2-b]quinoline-1,10-dione] | – | – | 64.9% | 99.5% |
| COc1ccccc1C1C(C(=O)OC(C)C)=C(C)NC2=C1C(=O)CC(c1ccccc1)C2 (stereo not shown) [ST017220, methylethyl 4-(2-methoxyphenyl)-2-methyl-5-oxo-7-phenyl-1,4,6,7,8-pentahydroquinoline-3-carboxylate] | – | – | 60.9% | 99.6% |
| N#CC1=C(N)N(c2c(F)cccc2F)C2=C(C(=O)CCC2)C1c1ccsc1 (stereo not shown) [ST051960, 2-amino-1-(2,6-difluorophenyl)-5-oxo-4-(3-thienyl)-1,4,6,7,8-pentahydroquinoline-3-carbonitrile] | – | – | 48.8% | 86.3% |
| COc1ccc(COC(=O)C2=C(C)NC3=C(C(=O)CCC3)C2c2ccc(Cl)cc2)cc1 (stereo not shown) [ST018648, (4-methoxyphenyl)methyl 4-(4-chlorophenyl)-2-methyl-5-oxo-1,4,6,7,8-pentahydroquinoline-3-carboxylate] | – | – | 7.49% | 11% |
| CC1=C(C(=O)Nc2ccccc2)C(c2cccs2)C(C#N)=C(SCC(=O)NCCc2ccc(Br)cc2)N1 (stereo not shown) [RI_19] | 35.4 % of control | 44.4 % of control | – | – |
| COC(=O)C1=C(C)NC2=C(C(=O)CCC2)C1c1ccc(Br)cc1 (stereo not shown) [ST028547, methyl 4-(4-bromophenyl)-2-methyl-5-oxo-1,4,6,7,8-pentahydroquinoline-3-carboxylate] | – | – | 72.1% | 45.3% |
| COc1ccc(C2CC(=O)C3=C(C2)NC(C)=C(C(=O)OCc2ccccc2)C3c2ccc3c(c2)OCO3)cc1 (stereo not shown) [ST017133, phenylmethyl 4-(2H-benzo[3,4-d]1,3-dioxolen-5-yl)-7-(4-methoxyphenyl)-2-methyl-5-oxo-1,4,6,7,8-pentahydroquinoline-3-carboxylate] | – | – | 39.2% | 79.2% |
